Experimental data: publication PMC6041393, “A Mechanistic Model for Predicting Cell Surface Presentation of Competing Peptides by MHC Class I Molecules” (Frontiers in Immunology, 2018)
Read-outs that look alike come from different tables or passages of the source.

How the values were obtained:
B44:02 = tested on: B44:02; set-up: method as in PMID 26375851; settings: B lymphoblastoid cell lines; cited from earlier work
H-2Db [1] = target: T1, H-2Db (Mus musculus, UniProt P01899); assay: Brefeldin A (BFA) decay assay of pMHC complexes at the cell surface; assay type: cell-based; set-up: endogenous in cells; host or cells: RMA-S (TAP2-deficient mouse T cell line); settings: for t1/2 (peptide half-life of pMHC complex): BFA decay assay, RMA-S cells kept overnight at 26°C, pulsed with 20 μM peptide 1 h at 26°C, BFA added, decay at 37°C, B22 anti-H-2Db staining, flow cytometry, exponential fit; for Off-rates: converted from BFA decay half-life as log(2)/half-life (s)
T1 sequence (P01899 25-362): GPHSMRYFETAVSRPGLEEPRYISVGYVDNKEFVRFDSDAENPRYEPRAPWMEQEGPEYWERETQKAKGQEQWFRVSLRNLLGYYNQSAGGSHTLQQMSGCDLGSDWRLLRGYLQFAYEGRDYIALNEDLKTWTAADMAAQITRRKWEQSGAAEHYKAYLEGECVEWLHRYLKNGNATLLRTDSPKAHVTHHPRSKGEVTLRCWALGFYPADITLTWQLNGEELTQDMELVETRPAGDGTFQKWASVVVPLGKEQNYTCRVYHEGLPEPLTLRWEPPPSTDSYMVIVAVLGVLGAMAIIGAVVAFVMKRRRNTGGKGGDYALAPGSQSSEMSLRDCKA
T1 sequence (P01887 21-119 partner): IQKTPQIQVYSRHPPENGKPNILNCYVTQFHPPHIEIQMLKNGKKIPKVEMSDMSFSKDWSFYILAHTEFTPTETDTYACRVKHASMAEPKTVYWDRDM
Method: Dissociation of pMHC complexes at the cell surface was assessed by BFA decay assay as described previously ([17]). RMA-S cells were incubated overnight at 26°C to maximize MHC-I surface expression. After being washed, 5 × 10^5 cells per well of a 96-U-bottom plate were pulsed, at different time intervals, with peptides (final concentration of 20 μM) for 1 h at 26°C. After washing with medium, de novo transport of MHC-I to the cell surface was blocked by the addition of BFA, and peptide-loaded RMA-S cells were incubated at 37°C to allow decay of unstable molecules. Cells were washed in FACS buffer and stained with B22 primary monoclonal Abs (conformation sensitive anti-H-2Db MAb) and goat anti-mouse IgG-PE secondary Abs (Abcam, Cambridge, UK) to detect peptide-loaded MHC-I molecules. Samples were analyzed by flow cytometry on a Fortessa X20 flow cytometer (BD, Oxford, UK), and data were analyzed with the Diva software. MFI values were background deducted by subtracting the MFI value obtained in the DMSO control at the last time point. Half-lives and off-rate constants were then determined by fitting the curves using an exponential trend line in the Excel software (Microsoft, USA).
We experimentally measured the stability of pMHC complexes by following their decay from the cell surface over time (“BFA decay assay” in Figure 2A), and used these measurements to calculate the corresponding unbinding rates of the peptides from MHC (Table 1; Figure S3 in Supplementary Material). Finally, to incorporate the effect of IFNγ into the model, we specified a new parameter (γ) that quantifies the increased supply of MHC and tapasin following IFNγ treatment.

E10 Fab = E10 Fab surface staining of peptide-pulsed RMA-S cells (flow cytometry); assay type: binding; settings: flow cytometry surface staining of RMA-S cells pulsed with peptides
H-2Db [2] = target: T1, H-2Db; assay: pMHC competition assay in co-transfected B6 fibroblasts; surface pMHC quantified with Qifikit beads, cytoplasmic peptide with mCherry beads; assay type: cell-based; settings: for surface expression of ASN variant–H2Db: IFNγ-treated fibroblasts, E10 Fab staining; for change of surface expression of peptide–H2Db complexes with IFNγ: fibroblasts treated with IFNγ for 48 h versus untreated; for number of pMHC complexes presented on the cell surface: untreated fibroblasts, 1C3 Mab, Qifikit calibration beads
Method: Fibroblasts were seeded at 2 × 10^5 cells per 6 cm diameter Petri dish. When IFNγ treatment was applied, 1 µg of mouse IFNγ (Peprotech, Rocky Hill, USA) was added per Petri dish 4 h after seeding. Cells were transfected the following day with TransIT-LT1 (Mirus, Madison, USA) following the manufacturer’s recommendations using 2.5 µg of each Venus-Ub-peptide and mCherry-Ub-peptide constructs. 1 day after transfection cells were stained for 45 min on ice with primary reagents, 1C3 hybrid Mab neat supernatant, E10 purified Fab, B22, or Y3 purified Mabs to detect surface pMHC complexes. After washing, cells were incubated for 45 min with AF647-conjugated goat anti-human IgG (used after Fab primary) or goat anti-mouse (after mouse antibodies including 1C3) (Invitrogen/Molecular Probes, Eugene, USA). Flow cytometry was performed using a Fortessa X20 cytometer (BD) and the data were analyzed using FACS Diva software (BD).
mCherry flow cytometry calibration beads (Clontech/Takara, USA) were used, as recommended by the manufacturer, to calibrate the amount of mCherry molecules, equivalent to the number of peptide molecules expressed in the transfected cells. Beads were run through the flow cytometer using the same setup as for acquiring cells.
The number of […]-H2Db complexes presented on the cell surface was estimated using Qifikit beads (Dako, Glostrup, Denmark). Beads were treated as recommended by the manufacturer but stained with AF647-conjugated goat anti-mouse IgG (Invitrogen) at the same dilution as used to detect the 1C3 Mab on transfected cells. A calibration curve was drawn by plotting the MFI of the 5 peaks (x-axis) versus the lot-specific numbers of antibody molecules per bead (y-axis). The curve was then used to calculate the number of […]-H2Db complexes presented on the cell surface expressed in antibody-binding capacity units (number of primary mouse monoclonal antibodies per cell).
To establish how variation in the intracellular abundance of competing peptides influences cell surface presentation, we developed an assay in which intracellular peptide supply and pMHC cell surface abundance could be measured simultaneously (Figure 1A), assay adapted from Ref. ([35]). Furthermore, this method measures the abundance of peptides actually presented at the surface of living cells and not, as for quantitative high-throughput methods, the abundance of peptides remaining bound to MHC after biochemical purification of pMHC I complexes from cell lysates. Two fluorescent fusion proteins, Venus-ubiquitin-[…] (faster off-rate, see Table 1) and mCherry-ubiquitin-[…] (slower off-rate) are co-expressed in fibroblasts. Once expressed in the cytoplasm, the fusion proteins are cleaved by endogenous cytoplasmic ubiquitin hydrolases, releasing the peptides at an equimolecular ratio to their respective fluorescent reporter protein (Figure 1A) that can be quantified by flow cytometry ([36]) (Figure S1 in Supplementary Material). Using this system, the generation of peptides bypasses the proteasome. After translocation into the ER, peptides compete for loading onto MHC-I molecules and are transported to the cell surface where they can be quantified by flow cytometry (Figure 1A). Both fusion proteins were naturally expressed at a broad range of concentrations after transient transfection, allowing in a single experiment to compare peptide surface presentation in cells expressing low to high levels of both fusion proteins (Figure 1B). To analyze competition between both peptides, cells were partitioned into different gates according to their expression level of mCherry, reporter for the level of expression of […], and Venus, reporter for the level of […] (Figure 1B). Competition was then assessed by plotting surface expression of […]-H2Db as a function of increasing cytoplasmic expression of the […] target peptide for increasing levels of competing peptide (Venus levels 1–7 in Figure 1B). […]

H-2Dd = H-2Dd (Mus musculus, UniProt P01900); settings: H-2Dd binding CT26 epitope; cited from earlier work
NIT-1 insulinoma cells = settings: cited from earlier work; for enhancement of presentation by IFNγ: NIT-1 cells
Source text: IFNγ is well known to stimulate the immune system, increasing expression of MHC-I heavy chain, β2-microglobulin, subunits of the immunoproteasome (MECL1, LMP2, and LMP7), TAP, tapasin, the ER aminopeptidase associated with antigen processing (ERAAP) ([41]) and the tapasin-related protein (TAPBPR); it is produced as part of the immune response against viruses. ...

[3] = mCherry-SSLENFRAYV at around 10^4 MFI units
[4] = NIT-1 cells after IFNγ treatment

Sequence: AETPDIKLF [human peptide derived from the RS5 protein, eluted from B44:02 complexes]
- copies eluted from B44:02 complexes (B44:02): around 45,000 copies

Sequence: ASIENLETM
- t1/2 (peptide half-life of pMHC complex) (H-2Db [1]): 502 min
- Off-rates (H-2Db [1]): 2.3e-05 s⁻¹
- E10 score (E10 Fab binding to peptide–H2Db complexes) (E10 Fab): 1.8 MFI/1000

Sequence: ASIENMETM
- t1/2 (peptide half-life of pMHC complex) (H-2Db [1]): 456 min
- Off-rates (H-2Db [1]): 2.5e-05 s⁻¹
- E10 score (E10 Fab binding to peptide–H2Db complexes) (E10 Fab): 8.9 MFI/1000

Sequence: ASNEAMETM
- surface expression of ASN variant–H2Db (H-2Db [2]): unable to reach or remain at the cell surface at detectable levels
- t1/2 (peptide half-life of pMHC complex) (H-2Db [1]): 43 min
- Off-rates (H-2Db [1]): 0.00027 s⁻¹
- E10 score (E10 Fab binding to peptide–H2Db complexes) (E10 Fab): 8.2 MFI/1000

Sequence: ASNENLETM
- t1/2 (peptide half-life of pMHC complex) (H-2Db [1]): 238 min
- Off-rates (H-2Db [1]): 4.9e-05 s⁻¹
- E10 score (E10 Fab binding to peptide–H2Db complexes) (E10 Fab): 4.1 MFI/1000

Sequence: ASNENMETA
- surface expression of ASN variant–H2Db (H-2Db [2]): unable to reach or remain at the cell surface at detectable levels
- t1/2 (peptide half-life of pMHC complex) (H-2Db [1]): 52 min
- Off-rates (H-2Db [1]): 0.00022 s⁻¹
- E10 score (E10 Fab binding to peptide–H2Db complexes) (E10 Fab): 14.2 MFI/1000

Sequence: ASNENMETI
- t1/2 (peptide half-life of pMHC complex) (H-2Db [1]): 212 min
- Off-rates (H-2Db [1]): 5.4e-05 s⁻¹
- E10 score (E10 Fab binding to peptide–H2Db complexes) (E10 Fab): 13.1 MFI/1000

Sequence: ASNENMETL
- t1/2 (peptide half-life of pMHC complex) (H-2Db [1]): 191 min
- Off-rates (H-2Db [1]): 6.1e-05 s⁻¹
- E10 score (E10 Fab binding to peptide–H2Db complexes) (E10 Fab): 11.8 MFI/1000

Sequence: ASNENMETM
- change of surface expression of peptide–H2Db complexes with IFNγ (H-2Db [2]): increased around fourfold
- ASNENMETM expression required to inhibit SSLENFRAYV presentation by 50%, with IFNγ compared to non-IFNγ-treated cells (H-2Db [2]; [3]): around ten times more
- t1/2 (peptide half-life of pMHC complex) (H-2Db [1]): 223 min
- Off-rates (H-2Db [1]): 5.2e-05 s⁻¹
- E10 score (E10 Fab binding to peptide–H2Db complexes) (E10 Fab): 11.5 MFI/1000

Sequence: ASNENMETV
- surface expression of ASN variant–H2Db (H-2Db [2]): unable to reach or remain at the cell surface at detectable levels
- t1/2 (peptide half-life of pMHC complex) (H-2Db [1]): 132 min
- Off-rates (H-2Db [1]): 8.8e-05 s⁻¹
- E10 score (E10 Fab binding to peptide–H2Db complexes) (E10 Fab): 16.8 MFI/1000

Sequence: GGPESFYCASW
- half-life (H-2Dd): 20 min

Sequence: SSLENFRAYV
- change of surface expression of peptide–H2Db complexes with IFNγ (H-2Db [2]): increased around fourfold
- cytoplasmic expression at which surface expression could be detected (H-2Db [2]; mCherry calibration beads): ~10^6 copies per cell
- cytoplasmic expression in transfected cells (H-2Db [2]; mCherry calibration beads, maximum): up to 10^8 copies per cell
- cell surface abundance in the absence of competitor (H-2Db [2]; [3]): around 4 × 10^4 complexes
- copies expressed at the cell surface in the absence of competition (H-2Db [2]; mCherry-SSLENFRAYV at around 10^4 MFI units, printed in brackets after non-IFNγ-treated cells): 25 × 10^4 copies
- number of pMHC complexes presented on the cell surface (H-2Db [2]; absence of ASNENMETM competition): up to 80,000 pMHC complexes
- number of pMHC complexes presented on the cell surface (H-2Db [2]; highest level of ASNENMETM competitor): ≤ 10,000 pMHC complexes
- t1/2 (peptide half-life of pMHC complex) (H-2Db [1]): 408 min
- Off-rates (H-2Db [1]): 2.8e-05 s⁻¹
- E10 score (E10 Fab binding to peptide–H2Db complexes) (E10 Fab): 3.8 MFI/1000

Sequence: SYFPEITHI
- presentation, copies per cell (NIT-1 insulinoma cells; [4]): ~ 15,000 copies per cell
- enhancement of presentation by IFNγ (NIT-1 insulinoma cells): 7.5 fold increase
- presentation, copies per cell (NIT-1 insulinoma cells; untreated NIT-1 cells): ~ 2,000 copies per cell

Sequence: VYLKTNVFK
- presentation, copies per cell (NIT-1 insulinoma cells; [4]): 25 copies per cell
- enhancement of presentation by IFNγ (NIT-1 insulinoma cells): 25 fold increase
- presentation, copies per cell (NIT-1 insulinoma cells; untreated NIT-1 cells): 1 copies per cell
